# Assay results as given in patent US20250042889A1, “3CLPRO PROTEASE INHIBITOR” (SHANGHAI QILU PHARMACEUTICAL RESEARCH AND DEVELOPMENT …, priority 2021, published 2025).
# Molecular target: SARS-COV-2 3CLpro/Mpro protease (Severe acute respiratory syndrome coronavirus 2 (2019-nCoV) (SARS-CoV-2), UniProt P0DTD1)
# Assay: Inhibitory effect on SARS-COV-2 3CLpro/Mpro protease by fluorescence resonance energy transfer
# Type: biochemical
# Details: activity intervals A-D, read-out: IC50 (nM), Inhibition on SARS-CoV-2 3CLpro/Mpro protease
row,SMILES,IC50
1,"CNc1cncc(C(=O)N2C[C@H](Nc3c(C(=O)N4C[C@@H](C)O[C@@H](C)C4)cc(Br)cc3[N+](=O)[O-])C[C@H]2C(=O)NC2CCN(CCOC)CC2(F)F)c1 (single isomer, unassigned) [Compound 453-P1]",50 to 100 nM
2,O=C(c1cc(Br)cc([N+](=O)[O-])c1N[C@@H]1CCCN(C(=O)C2CNCC(F)(F)C2)C1)N1CCOC(F)(F)C1 (stereo in doubt) [Example 327],10 to 50 nM
3,O=C(c1cc(Br)cc([N+](=O)[O-])c1N[C@@H]1CCCN(C(=O)C2CNCC(F)(F)C2)C1)N1CCCC(F)(F)C1 (stereo in doubt) [Example 331],10 to 50 nM
4,CNc1cncc(C(=O)N2C[C@H](Nc3c(C(=O)N4C[C@@H](C)O[C@@H](C)C4)cc(Br)cc3[N+](=O)[O-])CC2C#N)c1 (stereo in doubt) [Example 362],50 to 100 nM
5,"O=C(N[C@H]1CCCC[C@H]1Nc1c(C(=O)N2CC(F)(F)C2)cc(Br)cc1[N+](=O)[O-])c1cncc2ccccc12 [Example 1, N-((1S,2R)-2-((4-bromo-2-(3,3-difluoroazetidin-1-carbonyl)-6-nitrophenyl)amino)cyclohexyl) isoquinolin-4-formamide]",10 to 50 nM
6,"O=C(N[C@H]1CCCC[C@H]1Nc1c(C(=O)N2CCCCC2)cc(Br)cc1[N+](=O)[O-])c1cncc2ccccc12 [Example 2, N-((1S,2R)-2-((4-bromo-2-nitro-6-(piperidin-1-carbonyl)phenyl)amino)cyclohexyl) isoquinolin-4-formamide]",< 10 nM
7,"O=C(N[C@H]1CCCC[C@H]1Nc1c(C(=O)N2CCCC2)cc(Br)cc1[N+](=O)[O-])c1cncc2ccccc12 [Example 3, N-((1S,2R)-2-((4-bromo-2-nitro-6-(pyrrolidin-1-carbonyl)phenyl)amino)cyclohexyl) isoquinolin-4-formamide]",< 10 nM
8,"O=C(c1cccnc1)N1CCC[C@@H](Nc2c(C(=O)N3CCCCC3)cc(Br)cc2[N+](=O)[O-])C1 [Example 4, (R)-(5-bromo-2-((1-nicotinoylpiperidin-3-yl)amino)-3-nitrophenyl)(piperidin-1-yl)methanone]",50 to 100 nM
9,"O=C(c1cncc(Br)c1)N1CCC[C@@H](Nc2c(C(=O)N3CCCCC3)cc(Br)cc2[N+](=O)[O-])C1 [Example 5, (R)-(5-bromo-2-((1-(5-bromonicotinoyl)piperidin-3-yl)amino)-3-nitrophenyl)(piperidin-1-yl)methanone]",< 10 nM
10,"O=C(c1cc(Br)cc([N+](=O)[O-])c1N[C@@H]1CCCN(C(=O)c2cncc3ccccc23)C1)N1CCC(F)(F)CC1 [Example 6, (R)-(5-bromo-2-((1-(isoquinolin-4-carbonyl)piperidin-3-yl)amino)-3-nitrophenyl)(4,4-difluoropiperidin-1-yl)methanone]",< 10 nM
11,CC1(C)C2CN(C(=O)c3cc(Br)cc([N+](=O)[O-])c3N[C@@H]3CCCN(C(=O)c4cncc5ccccc45)C3)CC21 (stereo partly drawn) [Example 7],10 to 50 nM
12,"O=C(c1cc(Br)cc([N+](=O)[O-])c1N[C@@H]1CCCN(C(=O)c2cncc3cc(Cl)ccc23)C1)N1CCCCC1 [Example 8, (R)-(5-bromo-2-((1-(7-chloroisoquinolin-4-carbonyl)piperidin-3-yl)amino)-3-nitrophenyl)(piperidin-1-yl)methanone]",< 10 nM
13,"O=C(N[C@H]1CCCC[C@H]1Nc1c(C(=O)N2CCCCC2)cc(Br)cc1C(F)(F)F)c1cncc2ccccc12 [Example 9, N-((1S,2R)-2-((4-Bromo-2-(piperidin-1-carbonyl)-6-(trifluoromethyl)phenyl)amino)cyclohexyl) isoquinolin-4-formamide]",< 10 nM
14,O=C(c1cc(Br)cc([N+](=O)[O-])c1N[C@@H]1CCCN(C(=O)c2cncc3ccccc23)C1)N1CCNCC1 [Example 10],10 to 50 nM
15,"O=C(c1cc(Br)cc([N+](=O)[O-])c1N[C@@H]1CCCN(C(=O)c2cnnc3ccccc23)C1)N1CCCCC1 [Example 11, (R)-(5-bromo-2-((1-(4-cinnolin-carbonyl)piperidin-3-yl)amino)-3-nitrophenyl)(piperidin-1-yl)methanone]",50 to 100 nM
16,"O=C(c1cc(Br)cc([N+](=O)[O-])c1N[C@@H]1CCN(C(=O)c2cncc3ccccc23)C1)N1CCCCC1 [Example 12, (R)-(5-bromo-2-((1-(isoquinolin-4-carbonyl)pyrrolidin-3-yl)amino)-3-nitrophenyl)(piperidin-1-yl)methanone]",10 to 50 nM
17,"O=C(c1cc(Br)cc([N+](=O)[O-])c1N[C@@H]1CCCN(C(=O)c2cncc3ccccc23)C1)N1CCCCC1 [Example 13, (R)-(5-bromo-2-((1-(isoquinolin-4-carbonyl)piperidin-3-yl)amino)-3-nitrophenyl)(piperidin-1-yl)methanone]",< 10 nM
18,O=C(N[C@H]1CCCC[C@H]1Nc1c(C(=O)N2CCCCC2)cc(Br)cc1[N+](=O)[O-])c1cncc(Br)c1 [Example 14],10 to 50 nM

row,SMILES,IC50
1,"O=C(c1cc(Br)cc([N+](=O)[O-])c1N[C@@H]1CCCN(C(=O)c2cncc3ccccc23)C1)N1CC2CC2C1 (stereo partly drawn) [Example 15, ((3R)-3-((2-(3-azabicyclo[3.1.0]hexan-3-carbonyl)-4-bromo-6-nitrophenyl)amino)piperidin-1-yl)(isoquinolin-4-yl)methanone]",10 to 50 nM
2,"O=C(N[C@H]1CCCC[C@H]1Nc1c(C(=O)N2CCC(F)(F)CC2)cc(Br)cc1[N+](=O)[O-])c1cc(=O)[nH]c2ccccc12 [Example 16, N-((1S,2R)-2-((4-bromo-2-(4,4-difluoropiperidin-1-carbonyl)-6-nitrophenyl)amino)cyclohexyl)-2-oxo-1,2-dihydroquinolin-4-formamide]",10 to 50 nM
3,C[C@@H]1CN(C(=O)c2cc(Br)cc([N+](=O)[O-])c2N[C@@H]2CCCN(C(=O)c3cncc4[nH]ccc34)C2)C[C@H](C)O1 [Example 17],10 to 50 nM
4,"C[C@@H]1CN(C(=O)c2cc(Br)cc([N+](=O)[O-])c2N[C@@H]2CCCN(C(=O)C3CCNC(=O)C3)C2)C[C@H](C)O1 (stereo partly drawn) [Example 18, 4-((R)-3-((4-bromo-2-((2R,6S)-2,6-dimethylmorpholin-4-carbonyl)-6-nitrophenyl)amino)piperidin-1-carbonyl)piperidin-2-one]",100 to 200 nM
5,"CNc1cncc(C(=O)N2CCC[C@@H](Nc3c(C(=O)N4CCC(N5CCOCC5)CC4)cc(Br)cc3[N+](=O)[O-])C2)c1 [Example 19, (R)-(5-bromo-2-((1-(5-(methylamino)nicotinoyl)piperidin-3-yl)amino)-3-nitrophenyl)(4-morpholinopiperidin-1-yl)methanone]",10 to 50 nM
6,CNc1cncc(C(=O)N2C[C@H](Nc3c(C(=O)N4C[C@@H](C)O[C@@H](C)C4)cc(Br)cc3[N+](=O)[O-])C3(CC3)C2)c1 [Example 20],10 to 50 nM
7,CNc1cncc(C(=O)N2C[C@H](Nc3c(C(=O)N4C[C@@H](C)N[C@@H](C)C4)cc(Br)cc3[N+](=O)[O-])C3(CC3)C2)c1 [Example 21],10 to 50 nM
8,CNc1cncc(C(=O)N2CCC[C@@H](Nc3c(C(=O)N4CCN(CC(F)(F)F)CC4)cc(Br)cc3[N+](=O)[O-])C2)c1 [Example 22],10 to 50 nM
9,"CNc1cncc(C(=O)N2CCC[C@@H](Nc3c(C(=O)N4CCN(C(=O)C(F)(F)F)CC4)cc(Br)cc3[N+](=O)[O-])C2)c1 [Example 23, (R)-1-(4-(5-bromo-2-((1-(5-(methylamino)nicotinoyl)piperidin-3-yl)amino)-3-nitrobenzoyl)piperazin-1-yl)-2,2,2-trifluoroethan-1-one]",10 to 50 nM
10,"O=C(c1cc[nH]c(=O)c1)N1CCC[C@@H](Nc2c(C(=O)N3CCC(F)(F)CC3)cc(Br)cc2[N+](=O)[O-])C1 [Example 24, (R)-4-(3-((4-bromo-2-(4,4-difluoropiperidin-1-carbonyl)-6-nitrophenyl)amino)piperidin-1-carbonyl)pyridin-2 (1H)-one]",100 to 200 nM
11,"O=C1CN(C(=O)c2cc(Br)cc([N+](=O)[O-])c2N[C@@H]2CCCC[C@@H]2NC(=O)c2cncc3cc(Cl)ccc23)CCN1 [Example 25, N-((1S,2R)-2-((4-bromo-2-nitro-6-(3-oxopiperazin-1-carbonyl)phenyl)amino)cyclohexyl)-7-chloroisoquinolin-4-formamide]",10 to 50 nM
12,"Cc1cc(C(=O)N2CCC[C@@H](Nc3c(C(=O)N4CCOCC4)cc(Br)cc3[N+](=O)[O-])C2)cc(=O)[nH]1 [Example 26, (R)-4-(3-((4-bromo-2-(morpholin-4-carbonyl)-6-nitrophenyl)amino)piperidin-1-carbonyl)-6-methylpyridin-2 (1H)-one]",10 to 50 nM
13,"Cc1cc(C(=O)N2CCC[C@@H](Nc3c(C(=O)N4C[C@@H](C)O[C@@H](C)C4)cc(Br)cc3[N+](=O)[O-])C2)cc(=O)[nH]1 [Example 27, 4-((R)-3-((4-bromo-2-((2S,6R)-2,6-dimethylmorpholin-4-carbonyl)-6-nitrophenyl)amino)piperidin-1-carbonyl)-6-methylpyridin-2 (1H)-one]",10 to 50 nM
14,O=C(c1cc(Br)cc([N+](=O)[O-])c1N[C@@H]1CCCN(C(=O)c2cncc3[nH]ccc23)C1)N1CCC(F)(F)CC1 [Example 28],10 to 50 nM
15,"CNc1cncc(C(=O)N2CCC[C@@H](Nc3c(C(=O)N4CCN(C)CC4)cc(Br)cc3[N+](=O)[O-])C2)c1 [Example 29, (R)-(5-bromo-2-((1-(5-(methylamino)nicotinoyl)piperidin-3-yl)amino)-3-nitrophenyl)(4-methylpiperazin-1-yl)methanone]",10 to 50 nM
16,"CNc1cncc(C(=O)N2CC(Nc3c(C(=O)N4CCCCC4)cc(Br)cc3[N+](=O)[O-])C(F)(F)C2)c1 (stereo not drawn) [Example 32, (5-Bromo-2-((4,4-difluoro-1-(5-(methylamino)nicotinoyl)pyrrolidin-3-yl)amino)-3-nitrophenyl)(piperidin-1-yl)methanone]",10 to 50 nM
17,"C[C@H]1CCCN(C(=O)c2cc(Br)cc([N+](=O)[O-])c2N[C@@H]2CCCN(C(=O)[C@H]3CC(=O)N[C@@H](C)C3)C2)C1 [Example 33, (4R,6S)-4-((R)-3-((4-bromo-2-((S)-3-methylpiperidin-1-carbonyl)-6-nitrophenyl)amino)piperidin-1-carbonyl)-6-methylpiperidin-2-one]",10 to 50 nM
18,CNc1cncc(C(=O)N2CCC[C@@H](Nc3c(C(=O)N4CCO[C@H](CF)C4)cc(Br)cc3[N+](=O)[O-])C2)c1 [Example 37],10 to 50 nM
